Data published in patent publication US20220411422A1, “ERBB RECEPTOR INHIBITORS” (Dizal (Jiangsu) Pharmaceutical Co., Ltd., priority 2018, published 2022).
pIC50: −log10 of the molar value.

Columns and labels:
EGFR WT = biological target: T1, EGFR WT (Homo sapiens, UniProt P00533); test: EGFR (Y1068) phosphorylation in NCI-H838 cells, MSD kit; type: cell-based; details: pEGFR (Y1068), 4 h then hEGF stimulation
T1 construct: which expresses wild type EGFR protein; endogenous in cells; host or cells: NCI-H838 (ATCC CRL-5844)

HER2 WT Amplification = biological target: T2, HER2 WT Amplification (Homo sapiens, UniProt P04626); test: HER2 (Y1248) phosphorylation in BT474 cells, MSD kit; type: cell-based; details: pHER2 (Y1248), 4 h
T2 construct: The cell line expressed phosphorylated HER2 protein and its proliferation depended on the amplified gene; endogenous in cells; host or cells: BT474 (ATCC HTB-20)
Description: The plates were incubated for 4 h at 37° C. with 5% CO2 and then the HER2 (Y1248) phosphorylation level of cells in each well were measured with MSD Kit (Phospho-ErbB2 ([…]) Assay Whole Cell Lysate Kit: Cat #[…]-3). The assay is a electrochemiluminescent method (MESO SCALE DISCOVERY) for determining both phosphorylated and total HER2 of cells with an MSD SECTOR® Imager and then the ratio of p-HER2/total HER2 can be generated by the machine.

[1] = system: Human Pgp/BCRP transporter; test: Human Pgp/BCRP transporter substrate assessment; type: in vitro ADME
wild type EGFR = biological target: T3, wild type EGFR (Homo sapiens, UniProt P00533); test: pEGFR cellular activity in A431 cell line; type: cell-based
T3 construct: which expresses wild type EGFR protein; endogenous in cells; host or cells: A431
Description: A compound's activity of inhibition for EGFR WT can be evaluated with NCI-H838 (ATCC® CRL-5844™) and A431 cell line (the epidermoid carcinoma cell line A-431), which expresses wild type EGFR protein as the count screening to define the selectivity of the compound.
The compounds' inhibition of target modulation were determined as follows: NCI-H838 cells and A431 cells were sorted in 96 well plates (20000 cells/well) with the DMEM medium containing 1% FBS overnight and then treated with tested compounds at a series of concentrations (3 μM, 0.3 μM, 0.1 μM, 0.03 μM, 0.01 μM, 0.003 μM, 0.001 μM, 0.0001 μM). The plates were incubated for 4 h at 37° C. with 5% CO2 followed by the stimulation of recombinant hEGF (100 ng/ml for 10 Min, RD, Cat #236-EG) and then the EGFR (Y1068) phosphorylation level of cells in each well were measured with MSD Kit (MULTI-SPOT®96 4-Spot HB Prototype EGFR Triplex […]: pEGFR (Tyr1068), pEGFR (Tyr1173), Total EGFR (Cat #N45ZB-1). The assay is a electrochemiluminescent method (MESO SCALE DISCOVERY) for determining both phosphorylated and total EGFR of cells with an MSD SECTOR® Imager and then the ratio of p-EGFR/total EGFR can be generated by the machine. The percentage of inhibition was used the formula: % inhibition=100×[1−(ratio of sample well−ratio of Min ctrl well)/(ratio of Max−Ratio of Min ctrl well)]. […]

[2] = Clinical plasma and CSF PK in HER2+ MBC patients; type: in vivo, human; details: human, CSF, oral; patients with BM; read-out: averaged Kpuu,CSF
Description: The plasma concentration of Compound 6 at the dosage of 50 to 200 mg following single dose or multiple doses were tested. […] In patients with BM, averaged Kpuu,CSF was around 1.82 and 0.78 for Compound 6 and its active metabolite Compound 16, respectively.

[3] = Blood brain barrier penetration assay in rats (short oral absorption model with blood, plasma and brain binding); type: in vivo; details: male, Han Wistar, Table 5, rat
Description: In vitro blood, plasma and brain binding assay was carried out with equilibrium dialysis device. […] At the end of incubation, a 50 μL aliquot from the receiver side and a 5 μL from the donor chamber were taken. The 5 μL sample was further diluted with 45 μL of blank blood, plasma or brain homogenate. Paired samples were matrix-matched with either buffer or blank matrix, and mixed for 2 min, and then precipitated with 150 μL cold acetonitrile with 100 ng/mL tolbutamide as internal standard. After centrifuging at 4000 rpm for 20 min, supernatant was diluted with 0.1% formic acid aqueous solution and analyzed for LC/MS/MS (API 4000, Applied Biosystems, Foster City). […] D is dilution factor. […] A Short oral absorption (SOA) model is an in-vivo screening model to identify brain penetration of a compound. Six male Han Wistar rats purchased from Beijing Vital River were orally dosed with the compound. […] Brain tissue was harvested and homogenized in 3× volume of 100 mM phosphate buffered saline (pH7.4). All samples were stored at ˜−70° C. prior to LC/MS/MS analysis. Standards were prepared by spiking blank plasma, blood, brain homogenate and artificial CSF. […] After 2 min vortex and 5 min centrifugation at 14,000 rpm, supernatant was analyzed by LC/MS/MS (API 4000, Applied Biosystems, Foster City). Two sets of standard curves were run at the beginning and end of each batch from blood sample analysis. For brain and CSF samples, one standard curve was analyzed along with test samples. Total brain levels, expressed as brain/blood ratio (Kp,brain) were measured by AUC(brain)/AUC(blood or plasma) in rodents after oral administration. Similarly, CSF levels represented by a ratio of CSF/blood exposure (Kp,CSF) were determined by AUC(CSF)/AUC(blood or plasma). Free fraction of test compound in biological matrix was determined by in vitro blood and brain binding assay. Kp,uu brain and Kp,uu CSF was calculated by the following equation: Kp,uu brain=AUC(brain)/AUC(blood or plasma)×(fubrain/fublood/plasma) and […] Moreover, the ability of Compounds 6 and 16 to cross BBB was assessed in both rat and monkey by measuring unbound brain-to-plasma partition ratio (Kpuu,brain) and unbound CSF-to-plasma partition ratio (Kpuu,CSF) with the method mentioned above.

pHER2 = biological target: T4, pHER2 (Homo sapiens, UniProt P04626); test: pHER2 cellular activity in BT474c1 cell line; type: cell-based; details: BT474c1 cell line
T4 construct: pHER2 in cells expressing HER2; endogenous in cells; host or cells: BT474c1
Description: A compound's activity of selective inhibition for HER2 wild type amplification can be evaluated with BT474 cell line (ATCC® HTB-20™). The cell line expressed phosphorylated HER2 protein and its proliferation depended on the amplified gene, which could be used for in vitro PD and anti-proliferation assays.
The compounds' inhibition of target modulation were determined as follows: BT474 cells were sorted in 96 well plates (20000 cells/well) with the DMEM medium containing 10% FBS overnight and then treated with tested compounds at a series of concentrations (3 μM, 0.3 μM, 0.1 μM, 0.03 μM, 0.01 μM, 0.003 μM, 0.001 μM, 0.0001 μM). The plates were incubated for 4 h at 37° C. with 5% CO2 and then the HER2 (Y1248) phosphorylation level of cells in each well were measured with MSD Kit (Phospho-ErbB2 (Tyr1248) Assay Whole Cell Lysate Kit: Cat #K151CLD-3). The assay is a electrochemiluminescent method (MESO SCALE DISCOVERY) for determining both phosphorylated and total HER2 of cells with an MSD SECTOR® Imager and then the ratio of p-HER2/total HER2 can be generated by the machine. The percentage of inhibition was got from formula: % inhibition=100×[1−(ratio of sample well−ratio of Min ctrl well)/(ratio of Max−Ratio of Min ctrl well)]. The IC50 values were further calculated as the compounds concentration required for 50% inhibition in best-fit curves using Prism GraphPad 7.0 or Microsoft Xlfit software.

[4] = Blood brain barrier penetration assay in monkeys; type: in vivo; details: CSF, oral; Table 5; monkey
Description: In vitro blood, plasma and brain binding assay was carried out with equilibrium dialysis device. Diluted blood (1:1 with DPBS pH7.4), EDTA-anticoagulated plasma, and brain homogenate (1:3 with DPBS pH7.4) were spiked with 5 μM test compound (in triplicate) and dialyzed against equal volume of 150 μL 100 mM PBS buffer (pH7.4) at 37° C. for appropriate equilibration time in a slowly rotated plate. At the end of incubation, a 50 μL aliquot from the receiver side and a 5 μL from the donor chamber were taken. The 5 μL sample was further diluted with 45 μL of blank blood, plasma or brain homogenate. […] After centrifuging at 4000 rpm for 20 min, supernatant was diluted with 0.1% formic acid aqueous solution and analyzed for LC/MS/MS (API 4000, Applied Biosystems, Foster City). Unbound fraction (fu) of test compound were calculated by the ratio of the buffer side response to the brain homogenate/plasma/blood side response, and unbound fraction (fu,bl, fu,pl and fu,br) of test compound in non-diluted blood and tissue were calculated from measured fu in homogenate and diluted blood with the following equation: fu,bl (fu,br)=(1/D)/[(1/fu−1)+1/D)]. […]
Total brain levels, expressed as brain/blood ratio (Kp,brain) were measured by AUC(brain)/AUC(blood or plasma) in rodents after oral administration. […]
Kp,uu brain and Kp,uu CSF was calculated by the following equation: […]

T2 sequence (P04626 23-1255): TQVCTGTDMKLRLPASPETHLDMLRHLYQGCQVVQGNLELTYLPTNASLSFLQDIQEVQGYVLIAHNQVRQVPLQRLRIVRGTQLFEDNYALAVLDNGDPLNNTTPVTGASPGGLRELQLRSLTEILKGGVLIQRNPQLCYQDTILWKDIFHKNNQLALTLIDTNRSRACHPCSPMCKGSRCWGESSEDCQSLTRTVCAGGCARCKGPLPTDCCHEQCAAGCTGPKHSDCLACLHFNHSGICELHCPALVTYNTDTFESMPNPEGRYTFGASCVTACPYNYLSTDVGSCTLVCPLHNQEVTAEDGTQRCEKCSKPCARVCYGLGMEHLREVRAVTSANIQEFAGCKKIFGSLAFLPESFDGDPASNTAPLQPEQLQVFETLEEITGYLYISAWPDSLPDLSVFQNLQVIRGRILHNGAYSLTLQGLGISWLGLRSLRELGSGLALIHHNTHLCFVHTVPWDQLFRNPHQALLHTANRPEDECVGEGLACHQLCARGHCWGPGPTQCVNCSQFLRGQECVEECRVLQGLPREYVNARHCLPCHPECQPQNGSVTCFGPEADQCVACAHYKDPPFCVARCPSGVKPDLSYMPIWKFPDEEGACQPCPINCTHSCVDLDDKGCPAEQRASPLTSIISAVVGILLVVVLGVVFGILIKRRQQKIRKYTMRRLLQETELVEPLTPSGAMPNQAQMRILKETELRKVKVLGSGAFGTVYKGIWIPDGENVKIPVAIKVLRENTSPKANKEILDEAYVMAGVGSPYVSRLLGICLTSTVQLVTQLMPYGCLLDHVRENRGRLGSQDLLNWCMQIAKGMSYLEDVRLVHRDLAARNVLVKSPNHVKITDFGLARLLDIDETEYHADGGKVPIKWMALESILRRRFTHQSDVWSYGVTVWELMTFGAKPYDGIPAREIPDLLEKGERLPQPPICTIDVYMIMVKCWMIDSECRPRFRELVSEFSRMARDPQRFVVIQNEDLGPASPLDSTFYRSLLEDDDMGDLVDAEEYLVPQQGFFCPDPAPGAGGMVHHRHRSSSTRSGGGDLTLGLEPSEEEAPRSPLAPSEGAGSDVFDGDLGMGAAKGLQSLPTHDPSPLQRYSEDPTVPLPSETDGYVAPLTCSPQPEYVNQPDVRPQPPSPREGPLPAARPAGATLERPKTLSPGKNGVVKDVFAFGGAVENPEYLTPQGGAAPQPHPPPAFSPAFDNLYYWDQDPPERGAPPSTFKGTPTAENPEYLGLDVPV
T4 sequence (P04626 23-1255): as above
T1 sequence (P00533 25-1210): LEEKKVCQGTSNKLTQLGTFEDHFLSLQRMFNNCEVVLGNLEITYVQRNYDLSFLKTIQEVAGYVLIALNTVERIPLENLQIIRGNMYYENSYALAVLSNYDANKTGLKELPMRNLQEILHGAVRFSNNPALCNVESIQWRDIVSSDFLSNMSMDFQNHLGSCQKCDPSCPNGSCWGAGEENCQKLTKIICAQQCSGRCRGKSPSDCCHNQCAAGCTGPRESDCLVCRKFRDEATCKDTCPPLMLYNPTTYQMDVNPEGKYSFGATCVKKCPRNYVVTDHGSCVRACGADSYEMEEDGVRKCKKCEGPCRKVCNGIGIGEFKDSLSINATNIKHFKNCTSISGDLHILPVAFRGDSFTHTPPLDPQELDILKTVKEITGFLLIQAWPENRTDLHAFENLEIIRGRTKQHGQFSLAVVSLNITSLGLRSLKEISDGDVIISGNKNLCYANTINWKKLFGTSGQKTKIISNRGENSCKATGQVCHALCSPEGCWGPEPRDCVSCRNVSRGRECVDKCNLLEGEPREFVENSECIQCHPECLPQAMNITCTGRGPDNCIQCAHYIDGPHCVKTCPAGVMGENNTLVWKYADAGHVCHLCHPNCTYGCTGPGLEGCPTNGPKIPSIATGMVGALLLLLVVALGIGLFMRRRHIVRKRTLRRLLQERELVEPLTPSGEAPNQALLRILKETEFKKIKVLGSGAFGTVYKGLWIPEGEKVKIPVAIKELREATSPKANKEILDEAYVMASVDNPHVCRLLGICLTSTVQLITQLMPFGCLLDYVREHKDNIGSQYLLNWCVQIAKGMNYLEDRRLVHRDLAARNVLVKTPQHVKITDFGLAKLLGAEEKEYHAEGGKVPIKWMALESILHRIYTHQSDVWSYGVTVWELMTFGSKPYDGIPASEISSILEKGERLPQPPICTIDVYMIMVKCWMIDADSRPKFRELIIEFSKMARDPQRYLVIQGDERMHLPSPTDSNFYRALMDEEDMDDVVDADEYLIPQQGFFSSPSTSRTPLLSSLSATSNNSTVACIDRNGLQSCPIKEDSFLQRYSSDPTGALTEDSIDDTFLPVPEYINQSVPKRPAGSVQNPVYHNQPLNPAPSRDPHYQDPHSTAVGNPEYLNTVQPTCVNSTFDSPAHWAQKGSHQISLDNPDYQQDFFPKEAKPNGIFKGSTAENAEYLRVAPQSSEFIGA
T3 sequence (P00533 25-1210): as above

SMILES: Cc1cc(Nc2ncnc3cccc(O[C@@H]4CCN(C)C[C@@H]4F)c23)ccc1Oc1ccn2ccnc2c1 (single isomer, unassigned) [Compound 11]
- pIC50 (EGFR WT): < 5.52
- pIC50 (HER2 WT Amplification): 7.88

SMILES: CCOc1cc2ncc(C#N)c(Nc3ccc(OCc4ccccn4)c(Cl)c3)c2cc1NC(=O)/C=C/CN(C)C [Neratinib, reference compound]
- Human Pgp/BCRP transporter substrate [1]: Yes

SMILES: COc1cc(O[C@H]2CCNCC2(F)F)c2c(Nc3ccc(Oc4ccn5ncnc5c4)c(C)c3)ncnc2c1 [Compound 16, (S)-N-(4-([1,2,4]triazolo[1,5-a]pyridin-7-yloxy)-3-methylphenyl)-5-((3,3-difluoropiperidin-4-yl)oxy)-7-methoxyquinazolin-4-amine]
- pIC50 (wild type EGFR): 6.13
- Kp uu [2]: ~0.78
- Kp uu ([3]; CSF, read-out: Kp,uu,CSF): 0.23
- Kp uu ([3]; brain, read-out: Kp,uu,brain): 0.12
- Human Pgp/BCRP transporter substrate [1]: No
- pIC50 (pHER2): 8.46
- Kp uu [4]: 0.87

SMILES: Cc1cc(Nc2ncnc3ccc(NC4=NC(C)(C)CO4)cc23)ccc1Oc1ccn2ncnc2c1 [ONT380, reference compound]
- Kp uu ([3]; brain, read-out: Kp,uu,brain): 0.016
- Human Pgp/BCRP transporter substrate [1]: Yes
